{"source": "patent US7265152B2", "about": "(ViroPharma Incorporated, priority 2002, dated 2007)"}
{"molecular_target": "T1, HCV NS5B (Hepatitis C virus genotype 1b, UniProt Q9WMX2)", "T1 construct": "fusion protein, of which the carboxyl terminal 21 amino acids were removed to enhance its solubility; His tag (GSHHHHHH); made in house; host or cells: E. coli", "assay": "Inhibition of viral RNA-dependent RNA polymerase (RdRp), in vitro biochemical assay", "parameters": "species or system HCV genotype 1b virus (BB7)", "details": "HCV NS5B RdRp, BB7 (genotype 1b); reported as class symbols; read-out: HCV pol-BB7 IC50", "description": "(§1) The HCV NS5B-directed RdRp activity was established and characterized in a standard in vitro biochemical assay using a purified HCV NS5B protein derived from the consensus sequence of a patient infected with HCV genotype 1b virus (BB7). (See Blight K J et al., Science. 2000, 290:1972-4). The NS5B consensus sequence was cloned and expressed in E. coli as a histidine tagged (GSHHHHHH) fusion protein, of which the carboxyl terminal 21 amino acids were removed to enhance its solubility.\n(§2) In addition to evaluating their activity in the replicon assay, representative compounds within the scope of the present invention, as shown in examples 1-453 of Table 1, were also evaluated for antiviral activity using this assay. A measure of the inhibitory activity of compounds of the invention may be expressed as IC50 values. IC50 values represent the concentration of the compound at which 50% of the RdRp activity is inhibited. […] These low concentrations of test compounds required to achieve 50% inhibition of the RdRp activity indicate that the compounds of the invention are effective at inhibiting RNA synthesis by viral RdRp enzymes.", "units": {"IC50": "nM"}}
{"smiles": "CNC(=O)c1c(-c2ccc(F)cc2)oc2cc(N(CC(C)O)S(C)(=O)=O)c(O)cc12", "note": "(stereo not drawn) [Example 438, 2-(4-Fluoro-phenyl)-5-hydroxy-6-[(2-hydroxy-propyl)-methanesulfonyl-amino]-benzofuran-3-carboxylic acid methylamide]", "IC50": "≤ 500"}
{"smiles": "CNC(=O)c1c(-c2ccc(F)cc2)oc2cc(N(CC(C)O)S(C)(=O)=O)c(OC)cc12", "note": "(stereo not drawn) [Example 439, 2-(4-Fluoro-phenyl)-6-[(2-hydroxy-propyl)-methanesulfonyl-amino]-5-methoxy-benzofuran-3-carboxylic acid methylamide]", "IC50": "≤ 500"}
{"smiles": "CCc1cc2c(C(=O)NC)c(-c3ccc(F)cc3)oc2cc1C1CCCN1C(C)=O", "note": "(stereo not drawn) [Example 440, 6-(1-Acetyl-pyrrolidin-2-yl)-5-ethyl-2-(4-fluoro-phenyl)-benzofuran-3-carboxylic acid methylamide]", "IC50": "≤ 500"}
{"smiles": "CNC(=O)c1c(-c2ccc(F)cc2)oc2cc(C3CCCN3C(=O)C3CC3)c(OC(C)C)cc12", "note": "(stereo not drawn) [Example 448, 6-(1-Cyclopropanecarbonyl-pyrrolidin-2-yl)-2-(4-fluoro-phenyl)-5-isopropoxy-benzofuran-3-carboxylic acid methylamide]", "IC50": "≤ 500"}
{"smiles": "CNC(=O)c1c(-c2ccc(F)cc2)oc2cc(-c3nnco3)c(OC)cc12", "note": "[Example 449, 2-(4-Fluoro-phenyl)-5-methoxy-6-[1,3,4]oxadiazol-2-yl-benzofuran-3-carboxylic acid methylamide]", "IC50": "≤ 500"}
{"smiles": "CNC(=O)c1c(-c2ccc(F)cc2)oc2cc(N(C)S(C)(=O)=O)c(-c3cccs3)cc12", "note": "[Example 450, 2-(4-Fluoro-phenyl)-6-(methanesulfonyl-methyl-amino)-5-thiophen-2-yl-benzofuran-3-carboxylic acid methylamide]", "IC50": "≤ 500"}
{"smiles": "CNC(=O)c1c(-c2ccc(F)cc2)oc2cc(N(CC(O)c3ccc(F)cc3)S(C)(=O)=O)c(O)cc12", "note": "(stereo not drawn) [Example 451, 2-(4-Fluoro-phenyl)-6-{[2-(4-fluoro-phenyl)-2-hydroxy-ethyl]-methanesulfonyl-amino}-5-hydroxy-benzofuran-3-carboxylic acid methylamide]", "IC50": "≤ 500"}
{"smiles": "CNC(=O)c1c(-c2ccccc2)oc2ccc(O)cc12", "note": "[Example 453, 5-Hydroxy-2-phenyl-benzofuran-3-carboxylic acid methylamide]", "IC50": "5000 to 30000"}
{"molecular_target": "T1, HCV NS5B", "assay": "Inhibition of viral RNA-dependent RNA polymerase (RdRp), in vitro biochemical assay", "parameters": "species or system HCV genotype 1b virus (BB7)", "details": "HCV NS5B RdRp, BB7; reported as range class; read-out: HCV pol-BB7 IC50", "description": "as §1, §2", "units": {"IC50": "nM"}}
{"smiles": "CNC(=O)c1c(-c2ccc(F)cc2)oc2cc(OCc3ccccc3)c(OC(C)C)cc12", "note": "[Example 194, 6-Benzyloxy-2-(4-fluoro-phenyl)-5-isopropoxy-benzofuran-3-carboxylic acid methylamide]", "IC50": "500 to 5000"}
{"molecular_target": "T1, HCV NS5B", "assay": "Inhibition of viral RNA-dependent RNA polymerase (RdRp), in vitro biochemical assay", "parameters": "species or system HCV genotype 1b virus (BB7)", "details": "HCV NS5B RdRp, BB7 genotype 1b; read-out: HCV pol-BB7 IC50", "description": "as §1, §2", "units": {"IC50": "nM"}}
{"smiles": "CNC(=O)c1c(-c2ccc(F)cc2)oc2cc(Nc3cc(C)nn3C)c(OC(C)C)cc12", "note": "[Example 127, 6-(2,5-Dimethyl-2H-pyrazol-3-ylamino)-2-(4-fluoro-phenyl)-5-isopropoxy-benzofuran-3-carboxylic acid methylamide]", "IC50": "5000 to 30000"}
{"smiles": "CNC(=O)c1c(-c2ccc(F)cc2)oc2cc(N3CCOCC3)c(OCc3ccncc3)cc12", "note": "[Example 128, 2-(4-Fluoro-phenyl)-6-morpholin-4-yl-5-(pyridin-4-ylmethoxy)-benzofuran-3-carboxylic acid methylamide]", "IC50": "≤ 500"}
{"smiles": "CNC(=O)c1c(-c2ccc(F)cc2)oc2cc(C#N)c(OC(C)C)cc12", "note": "[Example 129, 6-Cyano-2-(4-fluoro-phenyl)-5-isopropoxy-benzofuran-3-carboxylic acid methylamide]", "IC50": "≤ 500"}
{"molecular_target": "T1, HCV NS5B", "assay": "Inhibition of viral RNA-dependent RNA polymerase (RdRp), in vitro biochemical assay", "parameters": "species or system HCV genotype 1b virus (BB7)", "details": "HCV NS5B polymerase, BB7 (genotype 1b); values given as range classes A-D; read-out: HCV pol-BB7 IC50", "description": "as §1, §2", "units": {"IC50": "nM"}}
{"smiles": "CNC(=O)c1c(-c2ccc(F)cc2)oc2cc(N(C)S(C)(=O)=O)c(OCc3nccn3Cc3ccccc3)cc12", "note": "[Example 399, 5-(1-Benzyl-1H-imidazol-2-ylmethoxy)-2-(4-fluoro-phenyl)-6-(methanesulfonyl-methyl-amino)-benzofuran-3-carboxylic acid methylamide]", "IC50": "≤ 500"}
{"smiles": "CNC(=O)c1c(-c2ccc(F)cc2F)oc2cc(-c3c(C)noc3C)c(OC)cc12", "note": "[Example 400, 2-(2,4-Difluoro-phenyl)-6-(3,5-dimethyl-isoxazol-4-yl)-5-methoxy-benzofuran-3-carboxylic acid methylamide]", "IC50": "≤ 500"}
{"smiles": "CNC(=O)c1c(-c2ccc(F)cc2)oc2cc(C(C)=O)ccc12", "note": "[Example 411, 6-Acetyl-2-(4-fluoro-phenyl)-benzofuran-3-carboxylic acid methylamide]", "IC50": "500 to 5000"}
{"smiles": "CNC(=O)c1c(-c2ccc(F)cc2)oc2cc(N(C)S(C)(=O)=O)c(OCC(C)(C)O)cc12", "note": "[Example 412, 2-(4-Fluoro-phenyl)-5-(2-hydroxy-2-methyl-propoxy)-6-(methanesulfonyl-methyl-amino)-benzofuran-3-carboxylic acid methylamide]", "IC50": "≤ 500"}
{"smiles": "CCN(CC)C(=O)COc1cc2c(C(=O)NC)c(-c3ccc(F)cc3)oc2cc1N(C)S(C)(=O)=O", "note": "[Example 413, 5-Diethylcarbamoyl-methoxy-2-(4-fluoro-phenyl)-6-(methanesulfonyl-methyl-amino)-benzofuran-3-carboxylic acid methylamide]", "IC50": "≤ 500"}
{"smiles": "CCOc1cc2c(C(=O)NC)c(-c3ccc(F)cc3)oc2cc1-c1c(C)noc1C", "note": "[Example 414, 6-(3,5-Dimethyl-isoxazol-4-yl)-5-ethoxy-2-(4-fluoro-phenyl)-benzofuran-3-carboxylic acid methylamide]", "IC50": "≤ 500"}
{"smiles": "CNC(=O)c1c(-c2ccc(F)cc2)oc2cc(CN3CC(O)=C(C#N)C3=O)c(OC)cc12", "note": "[Example 431, 6-(3-Cyano-4-hydroxy-2-oxo-2,5-dihydro-pyrrol-1-ylmethyl)-2-(4-fluoro-phenyl)-5-methoxy-benzofuran-3-carboxylic acid methylamide]", "IC50": "≤ 500"}
{"smiles": "CNC(=O)c1c(-c2ccc(F)cc2)oc2cc(-c3c(C)noc3C)c(OCCN3CCOCC3)cc12", "note": "[Example 433, 6-(3,5-Dimethyl-isoxazol-4-yl)-2-(4-fluoro-phenyl)-5-(2-morpholin-4-yl-ethoxy)-benzofuran-3-carboxylic acid methylamide]", "IC50": "≤ 500"}
{"smiles": "CNC(=O)c1c(-c2ccc(F)cc2)oc2cc(-c3c(C)noc3C)c(OCCCN3CCCCC3)cc12", "note": "[Example 434, 6-(3,5-Dimethyl-isoxazol-4-yl)-2-(4-fluoro-phenyl)-5-(3-piperidin-1-yl-propoxy)-benzofuran-3-carboxylic acid methylamide]", "IC50": "500 to 5000"}
{"molecular_target": "T1, HCV NS5B", "assay": "Inhibition of viral RNA-dependent RNA polymerase (RdRp), in vitro biochemical assay", "parameters": "species or system HCV genotype 1b virus (BB7)", "details": "purified His-tagged NS5B (BB7), carboxyl terminal 21 amino acids removed; read-out: HCV pol-BB7 IC50", "description": "as §1, §2", "units": {"IC50": "nM"}}
{"smiles": "CNC(=O)c1c(-c2ccccc2)oc2ccc(OC(F)(F)F)cc12", "note": "[Example 2, 2-Phenyl-5-trifluoromethoxy-benzofuran-3-carboxylic acid methylamide]", "IC50": "500 to 5000"}
{"smiles": "CNC(=O)c1c(-c2ccc(F)cc2)oc2ccc(OCC(F)(F)F)cc12", "note": "[Example 64, 2-(4-Fluoro-phenyl)-5-(2,2,2-trifluoro-ethoxy)-benzofuran-3-carboxylic acid methylamide]", "IC50": "500 to 5000"}
{"system": "HCV replicon (BB7 sequence) in Huh-7-Clone A cells", "assay": "HCV replicon assay: ELISA of NS5A protein in replicon-containing cells (Inhibition of Viral RNA Replication)", "format": "cell-based", "details": "Hepatitis C virus; HCV replicon assay; ranges of 50% effective concentration (EC50); read-out: Replicon", "description": "Antiviral activity of representative compounds of the invention was first evaluated in a human liver-derived cell line (Huh-7-Clone A) containing the HCV replicon (BB7 sequence) (See Lohmann et al. Science. 1999, 285:110-3; Blight K J et al., Science. 2000, 290:1972-4; Pietschmann, T. et al., J. Virol. 2001, 73:1252-1264; and Lohmann, V. et al., J. Virol. 2001, 75:1437-1449). The HCV replicon is a subgenomic viral RNA that expresses the HCV proteins required for its own replication. These proteins include non-structural proteins NS3, NS4A, NS4B, NS5A and NS5B. The replicon also contains a foreign gene encoding a drug-selectable marker (neomycin phosphotransferase) to allow for G418 (neomycin) selection of cells that contain the replicon.\nAn ELISA (enzyme-linked immunosorbant assay) was used to determine the effect of compounds within the scope of the invention on the amount of HCV NS5A protein produced after a 72-hour incubation of the replicon-containing cells in the presence of varying concentrations of compound. COSTAR® 96-well cell culture plates were used but other known cell culture plates may be used. After incubation, media is removed from wells and the cells are fixed to the assay plate using 0.05% glutaraldehyde. The glutaraldehyde is then washed off using phosphate-buffered saline (PBS) following a 1 hour incubation and cells are blocked for non-specific antibody binding using for example SUPERBLOCK® reagent (blocking buffer) in PBS. The blocking agent is rinsed from the cells with PBS after 1 hour at 37° C. and primary monoclonal antibody is added to each well containing compound. Primary antibody is incubated for 1 hour at 37° C. and rinsed 3 times with PBS containing 0.02% TWEEN-20™ before addition of Horseradish Peroxidase (HRP) conjugated secondary antibody. HRP is incubated for 1 hour at 37° C. and rinsed several times, first with PBS/TWEEN-20™ followed by PBS alone. To quantify peroxidase activity, 3,3′,5, 5′-tetramethylbenzidine (TMB) substrate is added to the plate and after 30 minutes, the plates are read in an ELISA plate reader at an OD of 650 nm. Compound dose response was measured in an 8-point dose curve diluted serially to determine the inhibitory concentration at 50% (EC50 value). […] Ranges of 50% effective concentrations (EC50s) for representative compounds within the scope of this invention are listed in Table 1. Preferred compounds have 50% effective concentrations at about 30 μM or less, more preferred compounds have 50% effective concentrations at about 5 μM or less, and most preferred compounds have 50% effective concentrations at about 0.5 μM or less.", "units": {"EC50": "nM"}}
{"smiles": "CNC(=O)c1c(-c2ccc(F)cc2)oc2cc(NS(C)(=O)=O)c(-c3c(C)noc3C)cc12", "note": "[Example 407, 5-(3,5-Dimethyl-isoxazol-4-yl)-2-(4-fluoro-phenyl)-6-methanesulfonylamino-benzofuran-3-carboxylic acid methylamide]", "EC50": "< 10000"}
